According to ChEMBL document CHEMBL5537180, “Discovery of Novel Aminobutanoic Acid-Based ASCT2 Inhibitors for the Treatment of Non-Small-Cell Lung Cancer” (J Med Chem, 2024):
pIC50: −log10 of the molar value. The source made the active and inactive calls. No cut-off for these calls is given here.

Experiments:
[1] = target: T1, Neutral amino acid transporter B(0) (Homo sapiens, UniProt Q15758); test: Inhibition of ASCT2 in HEK293 cells assessed as reduction in glutamine uptake preincubated for 5 mins followed by substrate addition and measured after 15 mins; format: cell-based
T1 sequence (Q15758 whole entry): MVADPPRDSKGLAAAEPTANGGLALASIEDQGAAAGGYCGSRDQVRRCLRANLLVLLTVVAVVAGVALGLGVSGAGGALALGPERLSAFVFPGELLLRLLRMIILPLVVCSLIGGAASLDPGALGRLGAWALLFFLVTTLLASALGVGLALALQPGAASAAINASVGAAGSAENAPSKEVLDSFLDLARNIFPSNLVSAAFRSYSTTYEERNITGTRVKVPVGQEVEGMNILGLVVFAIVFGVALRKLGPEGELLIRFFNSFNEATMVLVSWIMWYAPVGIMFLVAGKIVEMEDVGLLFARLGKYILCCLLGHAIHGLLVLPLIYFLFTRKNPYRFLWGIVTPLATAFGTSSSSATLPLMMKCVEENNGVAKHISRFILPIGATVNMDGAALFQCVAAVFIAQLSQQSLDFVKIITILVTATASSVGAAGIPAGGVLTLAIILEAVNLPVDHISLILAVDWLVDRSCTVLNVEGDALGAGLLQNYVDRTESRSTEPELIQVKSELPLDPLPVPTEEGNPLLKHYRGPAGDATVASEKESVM

[2] = Metabolic stability in rat liver microsomes assessed as intrinsic clearance; format: ADME, Microsome; conditions: read-out: CLH
A549 [3] = test: Inhibition of colony formation in human A549 cells measured after 7 to 10 days by crystal violet staining analysis; format: functional, cell-based; conditions: dose 5-10 µM, time 7-10 day
Cell membrane = test: Induction of mitochondrial membrane potential loss in human A549 cells assessed as […] aggregates at 5 uM incubated for 24 hrs by JC-1 staining based flow cytometry analysis (reference value: 93.8%); format: cell membranes
A549 [4] = test: Induction of apoptosis in human A549 cells assessed as caspase 3 activation at 5 to 10 uM incubated for 24 hrs by Western blot analysis; format: functional, cell-based; conditions: dose 5-10 µM
[5] = Tmax in Sprague-Dawley rat at 10 mg/kg, ip incubated for 24 hrs by LC-MS/MS analysis; format: ADME, organism-based; conditions: in vivo
[6] = AUC (0 to infinity) in Sprague-Dawley rat at 10 mg/kg, ip incubated for 24 hrs by LC-MS/MS analysis; format: ADME, organism-based; conditions: in vivo
A549 [7] = test: Inhibition of AKT/mTORC signalling in human A549 cells assessed as decrease in mTORC1 level at 5 to 10 uM measured after 24 hrs by Western blot analysis; format: cell-based; conditions: dose 5-10 µM
A549 [8] = test: Inhibition of AKT/mTORC signalling in human A549 cells assessed as decrease in p70S6K level at 5 to 10 uM measured after 24 hrs by Western blot analysis; format: cell-based; conditions: dose 5-10 µM
A549 [9] = test: Inhibition of AKT/mTORC signalling in human A549 cells assessed as decrease in AKT phosphorylation level at 5 to 10 uM measured after 24 hrs by Western blot analysis; format: cell-based; conditions: dose 5-10 µM
A549 [10] = test: Induction of autophagy in human A549 cells assessed as downregulation of ERK expression at 5 to 10 uM measured after 24 hrs by Western blot analysis; format: functional, cell-based; conditions: dose 5-10 µM
A549 [11] = test: Antitumor activity against human A549 cells xenografted in BALB/c nude mouse assessed as decrease in tumor weight at 25 to 50 mg/kg, ip measured daily for 3 weeks; format: functional, organism-based; conditions: dose 25-50 mg/kg
[12] = Toxicity in BALB/c nude mouse assessed as effect on body weight at 25 to 50 mg/kg, ip measured daily for 3 weeks; format: organism-based; conditions: in vivo, 504 h, dose 25-50 mg/kg
[13] = Toxicity in BALB/c nude mouse assessed as effect on heart at 25 to 50 mg/kg, ip measured after 3 weeks by H and E staining based analysis; format: organism-based; conditions: in vivo, 504 h, dose 25-50 mg/kg
[14] = Toxicity in BALB/c nude mouse assessed as effect on spleen at 25 to 50 mg/kg, ip measured after 3 weeks by H and E staining based analysis; format: organism-based; conditions: in vivo, 504 h, dose 25-50 mg/kg
[15] = Toxicity in BALB/c nude mouse assessed as effect on lung at 25 to 50 mg/kg, ip measured after 3 weeks by H and E staining based analysis; format: organism-based; conditions: in vivo, 504 h, dose 25-50 mg/kg
[16] = Toxicity in BALB/c nude mouse assessed as effect on kidney at 25 to 50 mg/kg, ip measured after 3 weeks by H and E staining based analysis; format: organism-based; conditions: in vivo, 504 h, dose 25-50 mg/kg
[17] = target: T2, Sodium-coupled neutral amino acid symporter 1 (Homo sapiens) (UniProt Q9H2H9); test: Inhibition of SNAT1 (unknown origin) overexpressed in HEK293 cells assessed as reduction in [13C]-Gln uptake preincubated for 5 mins followed by substrate addition and measured after 15 mins; format: cell-based; conditions: time 20.0 min
T2 sequence (whole entry): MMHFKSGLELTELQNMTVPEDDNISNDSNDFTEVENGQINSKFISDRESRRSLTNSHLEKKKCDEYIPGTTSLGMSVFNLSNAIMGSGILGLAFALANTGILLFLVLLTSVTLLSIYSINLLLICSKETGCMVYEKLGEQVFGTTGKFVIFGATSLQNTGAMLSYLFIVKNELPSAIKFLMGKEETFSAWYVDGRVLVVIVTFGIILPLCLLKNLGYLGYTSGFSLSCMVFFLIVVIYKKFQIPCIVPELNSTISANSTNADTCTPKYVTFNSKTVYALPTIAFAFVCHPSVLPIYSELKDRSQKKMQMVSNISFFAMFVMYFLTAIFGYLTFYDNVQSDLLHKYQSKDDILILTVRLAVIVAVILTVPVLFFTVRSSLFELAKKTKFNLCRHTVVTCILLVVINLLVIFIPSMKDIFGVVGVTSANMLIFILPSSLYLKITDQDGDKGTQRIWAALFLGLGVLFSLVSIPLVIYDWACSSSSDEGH

[18] = target: Large neutral amino acids transporter small subunit 1 (Homo sapiens) (UniProt Q01650); test: Inhibition of LAT1 (unknown origin) overexpressed in HEK293 cells assessed as reduction in [13C]-Gln uptake preincubated for 5 mins followed by substrate addition and measured after 15 mins; format: cell-based; conditions: time 20.0 min
Sequence of Large neutral amino acids transporter small subunit 1 (Homo sapiens) (Q01650 whole entry): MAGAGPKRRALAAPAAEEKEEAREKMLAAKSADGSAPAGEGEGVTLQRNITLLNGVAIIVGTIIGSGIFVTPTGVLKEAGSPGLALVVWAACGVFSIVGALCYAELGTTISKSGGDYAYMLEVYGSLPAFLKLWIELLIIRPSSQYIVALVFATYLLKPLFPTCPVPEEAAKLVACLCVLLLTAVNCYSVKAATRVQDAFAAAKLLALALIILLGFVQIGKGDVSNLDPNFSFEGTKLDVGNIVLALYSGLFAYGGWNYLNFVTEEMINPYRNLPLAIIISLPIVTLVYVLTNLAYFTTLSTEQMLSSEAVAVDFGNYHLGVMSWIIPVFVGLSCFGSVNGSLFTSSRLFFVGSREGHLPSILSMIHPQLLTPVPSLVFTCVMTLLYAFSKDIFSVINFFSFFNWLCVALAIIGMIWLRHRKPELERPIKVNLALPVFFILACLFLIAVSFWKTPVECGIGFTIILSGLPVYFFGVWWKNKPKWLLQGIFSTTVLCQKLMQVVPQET

[19] = target: Large neutral amino acids transporter small subunit 1 (Homo sapiens) (UniProt Q01650); test: Inhibition of LAT1 (unknown origin) overexpressed in human A549 cells assessed as reduction in [13C]-Gln uptake preincubated for 5 mins followed by substrate addition and measured after 15 mins; format: cell-based; conditions: time 20.0 min
A549 [20] = test: Inhibition of Gln uptake in human A549 cells assessed as reduction in intracellular glutamate level incubated for 24 hrs by LC-MS/MS analysis; format: functional, cell-based
A549 [21] = test: Inhibition of Gln uptake in human A549 cells assessed as reduction in succinate level incubated for 24 hrs by LC-MS/MS analysis; format: functional, cell-based
A549 [22] = test: Inhibition of Gln uptake in human A549 cells assessed as reduction in malate level incubated for 24 hrs by LC-MS/MS analysis; format: functional, cell-based
A549 [23] = test: Inhibition of Gln uptake in human A549 cells assessed as reduction in citrate level incubated for 24 hrs by LC-MS/MS analysis; format: functional, cell-based
NSCLC [24] = test: Antiproliferative activity against human NSCLC cells cultured as 2566 organoids assessed as cell viability incubated for 96 hrs by Celltiter-glo viability assay; format: functional, cell-based
NSCLC [25] = test: Antiproliferative activity against human NSCLC cells cultured as HCC827 organoids assessed as cell viability incubated for 96 hrs by Celltiter-glo viability assay; format: functional, cell-based

## N[C@@H](CCN(Cc1ccccc1OCC#Cc1ccc(Cl)cc1)Cc1ccccc1OCC#Cc1ccc(Cl)cc1)C(=O)O
[1]
  pIC50: 5.46
[2]
  microsomal CLint: 37.5 µL/min/mg
A549 [3]
  inhibition: Dose-Dependent Effect
Cell membrane
  Activity: 87.8%
A549 [4]
  Activity: Active
[5]
  Tmax: 1.17 h
[6]
  AUC(0-inf): 2820 ng·h/mL
A549 [7]
  inhibition: Active
A549 [8]
  inhibition: Active
A549 [9]
  inhibition: Active
A549 [10]
  Activity: Active
A549 [11]
  Activity: Active
[12]
  Activity: Non-Toxic
[13]
  Activity: Toxic
[14]
  Activity: Toxic
[15]
  Activity: Toxic
[16]
  Activity: Toxic
[17]
  inhibition: inactive
[18]
  inhibition: inactive
[19]
  inhibition: inactive
A549 [20]
  inhibition: Active
A549 [21]
  inhibition: Active
A549 [22]
  inhibition: Active
A549 [23]
  inhibition: Active
NSCLC [24]
  pIC50: 5.29
NSCLC [25]
  pIC50: 4.65

## CC(C)(C)c1ccc(OCC#Cc2ccccc2)c(CN(CC[C@H](N)C(=O)O)Cc2cc(C(C)(C)C)ccc2OCC#Cc2ccccc2)c1
[1]
  pIC50: 5.29
[2]
  microsomal CLint: 8.27 µL/min/mg
A549 [3]
  inhibition: Dose-Dependent Effect
Cell membrane
  Activity: 76.1%
A549 [4]
  Activity: Active
[5]
  Tmax: 5.33 h
[6]
  AUC(0-inf): 14500 ng·h/mL
A549 [7]
  inhibition: Active
A549 [8]
  inhibition: Active
A549 [9]
  inhibition: Active
A549 [10]
  Activity: Active
A549 [11]
  Activity: Active
[12]
  Activity: Non-Toxic
[13]
  Activity: Toxic
[14]
  Activity: Toxic
[15]
  Activity: Toxic
[16]
  Activity: Toxic
[17]
  inhibition: inactive
[18]
  inhibition: inactive
[19]
  inhibition: inactive
A549 [20]
  inhibition: Active
A549 [21]
  inhibition: Active
A549 [22]
  inhibition: Active
A549 [23]
  inhibition: Active
NSCLC [24]
  pIC50: 5.09
NSCLC [25]
  pIC50: 5.63
